Data on 2 molecules can be found in patent publication US10624829B2, “VEGFC production promoter” (Shiseido Company, Ltd., priority 2012, dated 2020).

Data set [1] has as its system HaCaT cells. Put plainly: Cytotoxicity / cell number by alamar blue fluorescence in HaCaT cells. Particulars: aromatic final concentration 0.001% to 0.01%, 48 hours, alamar blue (Ex: 544 nm, Em: 590 nm). Format: cell-based, human. The protocol:
(§1) Human-derived cultured cells in the form of HaCaT cells (German Cancer Research Center, Heidelberg, Germany) were cultured in DMEM medium (Gibco Low Glucose DMEM™, Life Technologies Inc.) containing 10% FBS (Standard Fetal Bovine Serum, Hyclone Laboratories Inc.) and disseminated in a 24-well plate to 15×10^4 cells/well. The medium was replaced with serum-free DMEM 24 hours after dissemination followed by culturing for 24 hours. Subsequently, each aromatic dissolved in ethanol was added (aromatic final concentration: 0.001% to 0.01%). Ethanol was used as a control. The culture supernatant was recovered after culturing for 48 hours and the amount of VEGFC in the culture supernatant was quantified in accordance with the protocol of an ELISA kit (Quanikine® Human VEGF-C Immunoassay (R&D Systems Inc., Minneapolis, Minn.)). In addition, alamar blue (TREK Diagnostic Systems, Inc., Cleveland, US) was added to the cells after recovering the culture supernatant followed by measuring the number of cells based on their fluorescence intensity (Ex: 544 nm, Em: 590 nm). The amount of VEGFC in the supernatant was divided by fluorescence intensity, and the relative VEGFC-inducing activity per cell based on a value of 100 for the control (ethanol) is shown in FIG. 1.
For orientation: The colour change of resazurin is a common sign of viable cells or microbes.

The test system of data set [2] is VEGFC. Put plainly: VEGFC-inducing activity in HaCaT cells (VEGF-C ELISA of culture supernatant, normalised to cell number). The class given is cell-based, human. Particulars: aromatic final concentration 0.001% to 0.01%, 48 hours culture, ELISA of supernatant divided by alamar blue fluorescence, values only in FIG. 1. As for the experimental part:
As is described in detail in the subsequent examples, screening for agents that induce a lymph vessel activating factor in the form of VEGFC was carried out by allowing various types of candidate aromatics to act on human epidermis-derived cultured cells in the form of HaCaT cells, quantifying VEGFC, and selecting aromatics having VEGFC-inducing activity as active ingredients by using the amount of VEGFC as an indicator of VEGFC-inducing activity.
as §1, with “Subsequently, each aromatic dissolved in ethanol was added (aromatic final concentration: 0.001% to 0.01%). Ethanol was used as a control.” left out, “The amount of VEGFC in the supernatant was divided by fluorescence intensity, and the relative VEGFC-inducing activity per cell based on a value of 100 for the control (ethanol) is shown in FIG. 1.” left out
A general note: ELISA stands for enzyme-linked immunosorbent assay.

As to `CC(=O)OCCC(C)CCC=C(C)C` (stereo not shown) [citronellyl acetate, Citronellyl acetate], the cytotoxicity entry in data set [1] is “without demonstrating cytotoxicity”. Also, the “relative VEGFC-inducing activity per cell based on a value of 100 for the control (ethanol)” value in data set [2] was “demonstrated VEGFC-inducing activity”.

With `CC(C)=CC1CC(C)CCO1` (stereo not shown) [rose oxide, Rose oxide], in data set [1], the cytotoxicity entry is on record as “without demonstrating cytotoxicity”. Further, in data set [2], the “relative VEGFC-inducing activity per cell based on a value of 100 for the control (ethanol)” value is “demonstrated VEGFC-inducing activity”.
